Tested on: patients after acute myocardial infarction
Assay: Life quality, Seattle Angina Questionnaire (SAQ), same clinical trial
Type: in vivo, human
Settings: PP
Excerpt: 3508 patients who were in accordance with the diagnostic standards of AMI for 28 days to 2 years and differentiated as Qi deficiency and blood stagnation syndrome by TCM were studied. 0.5 g Chinese medicine composition prepared by the method of EXAMPLE 1 (Coded as QSYQ) was administrated half an hour after meal, 3 times per day.
There were 19 questions in the Seattle angina questionnaire (SAQ), including 5 parts: physical limitation (PL), anginal stability (AS), anginal frequency (AF), treatment satisfaction (TS) and disease perception (DP). After being given necessary explanation by doctors, the questions were answered independently by patients.
They included the overall survival time, angina pectoris score, TCM symptom score and life quality score, where angina pectoris score, TCM symptom score and life quality score were evaluated at randomization, in 1st, 3rd, 6th, 9th, 12th month after treatment and 18th month after follow-up.
All evaluation results of SAQ were described during the period of observation, and Wilcoxon rank sum test was used for inter-group comparison.
The evaluation results in the SAQ were depicted in different observations, and inter-group comparison was tested by Wilcoxon Rank-sum test.

## CC(=O)Oc1ccccc1C(=O)O [Control group, aspirine]
3 months after treatment
  11th question: Often worried, patients (%): (19.03%)
  11th question: Seldom worried, patients (%): (30.12%)
  SAQ 4th question, 1-2 times per week: % of patients: (17.09%)
  SAQ 4th question, 1-2 times per week: number of patients: 251
  SAQ 4th question, 1-3 times per day: % of patients: (5.31%)
  SAQ 4th question, 1-3 times per day: number of patients: 78
  SAQ 4th question, <1 time per week: % of patients: (10.35%)
  SAQ 4th question, <1 time per week: number of patients: 152
  SAQ 4th question, Not used: % of patients: (56.71%)
  SAQ 4th question, Not used: number of patients: 833
  SAQ 4th question, ≧3 times per week: % of patients: (10.55%)
  SAQ 4th question, ≧3 times per week: number of patients: 155
  SAQ 4th question, ≧4 times per day: % of patients: (0.00%)
  SAQ 4th question, ≧4 times per day: number of patients: 0
  SAQ 5th question, Few: % of patients: (24.57%)
  SAQ 5th question, Few: number of patients: 361
  SAQ 5th question, Mild: % of patients: (26.14%)
  SAQ 5th question, Mild: number of patients: 384
  SAQ 5th question, Moderate: % of patients: (16.13%)
  SAQ 5th question, Moderate: number of patients: 237
  SAQ 5th question, None: % of patients: (27.16%)
  SAQ 5th question, None: number of patients: 399
  SAQ 5th question, Not medicated by doctors: % of patients: (4.56%)
  SAQ 5th question, Not medicated by doctors: number of patients: 67
  SAQ 5th question, Severe: % of patients: (1.43%)
  SAQ 5th question, Severe: number of patients: 21
  SAQ 6th question, Dissatisfied: % of patients: (0.07%)
  SAQ 6th question, Dissatisfied: number of patients: 1
  SAQ 6th question, Highly satisfied: % of patients: (20.04%)
  SAQ 6th question, Highly satisfied: number of patients: 295
  SAQ 6th question, Mostly dissatisfied: % of patients: (2.51%)
  SAQ 6th question, Mostly dissatisfied: number of patients: 37
  SAQ 6th question, Mostly satisfied: % of patients: (51.09%)
  SAQ 6th question, Mostly satisfied: number of patients: 752
  SAQ 6th question, Partly satisfied: % of patients: (26.29%)
  SAQ 6th question, Partly satisfied: number of patients: 387
  SAQ 7th question, Dissatisfied: % of patients: (0.07%)
  SAQ 7th question, Dissatisfied: number of patients: 1
  SAQ 7th question, Highly satisfied: % of patients: (23.06%)
  SAQ 7th question, Highly satisfied: number of patients: 339
  SAQ 7th question, Mostly dissatisfied: % of patients: (1.84%)
  SAQ 7th question, Mostly dissatisfied: number of patients: 27
  SAQ 7th question, Mostly satisfied: % of patients: (53.47%)
  SAQ 7th question, Mostly satisfied: number of patients: 786
  SAQ 7th question, Partly satisfied: % of patients: (21.56%)
  SAQ 7th question, Partly satisfied: number of patients: 317
  SAQ Question 1-1 Mildly limited, number of patients: 22
  SAQ Question 1-1 Mildly limited, percent of patients: (1.50%)
  SAQ Question 1-1 Moderately limited, number of patients: 6
  SAQ Question 1-1 Moderately limited, percent of patients: (0.41%)
  SAQ Question 1-1 Not limited, number of patients: 1381
  SAQ Question 1-1 Not limited, percent of patients: (93.95%)
  SAQ Question 1-1 Other reasons, number of patients: 3
  SAQ Question 1-1 Other reasons, percent of patients: (0.20%)
  SAQ Question 1-1 Severely limited, number of patients: 0
  SAQ Question 1-1 Severely limited, percent of patients: (0.00%)
  SAQ Question 1-1 Slightly limited, number of patients: 58
  SAQ Question 1-1 Slightly limited, percent of patients: (3.95%)
  SAQ Question 1-2 Mildly limited, number of patients: 19
  SAQ Question 1-2 Mildly limited, percent of patients: (1.29%)
  SAQ Question 1-2 Moderately limited, number of patients: 8
  SAQ Question 1-2 Moderately limited, percent of patients: (0.54%)
  SAQ Question 1-2 Not limited, number of patients: 1353
  SAQ Question 1-2 Not limited, percent of patients: (92.04%)
  SAQ Question 1-2 Other reasons, number of patients: 6
  SAQ Question 1-2 Other reasons, percent of patients: (0.41%)
  SAQ Question 1-2 Severely limited, number of patients: 0
  SAQ Question 1-2 Severely limited, percent of patients: (0.00%)
  SAQ Question 1-2 Slightly limited, number of patients: 84
  SAQ Question 1-2 Slightly limited, percent of patients: (5.71%)
  SAQ Question 1-6: Mildly limited, patients (%): (17.92%)
  SAQ Question 1-6: Moderately limited, patients (%): (13.89%)
  SAQ Question 1-6: Not limited, patients (%): (30.92%)
  SAQ Question 1-6: Other reasons, patients (%): (0.96%)
  SAQ Question 1-6: Severely limited, patients (%): (3.83%)
  SAQ Question 1-6: Slightly limited, patients (%): (32.49%)
  SAQ Question 1-7: Mildly limited, patients (%): (23.81%)
  SAQ Question 1-7: Moserately limited, patients (%): (14.91%)
  SAQ Question 1-7: Not limited, patients (%): (13.46%)
  SAQ Question 1-7: Other reasons, patients (%): (3.11%)
  SAQ Question 1-7: Severely limited, patients (%): (16.01%)
  SAQ Question 1-7: Slightly limited, patients (%): (28.71%)
  SAQ Question 1-8: Mildly limited, patients (%): (25.82%)
  SAQ Question 1-8: Moderately limited, patients (%): (17.90%)
  SAQ Question 1-8: Not limited, patients (%): (10.48%)
  SAQ Question 1-8: Other reasons, patients (%): (2.91%)
  SAQ Question 1-8: Severely limieted, patients (%): (21.30%)
  SAQ Question 1-8: Slightly limited, patients (%): (21.58%)
6 months after treatment
  8th question: Dissatisfied, patients (%): (0.07%)
  8th question: Highly satisfied, patients (%): (20.69%)
  8th question: Mostly satisfied, patients (%): (56.70%)
  8th question: Partly satisfied, patients (%): (20.96%)
  9th question: Few, patients (%): (34.99%)
  9th question: Mild, patients (%): (34.44%)
  9th question: Moderate, patients (%): (10.54%)
  9th question: Severe, patients (%): (0.21%)
  9th question: Uneffective, patients (%): (19.83%)
  10th question: Dissatisfied, patients (%): (20.36%)
  10th question: Highly satisfied, patients (%): (4.88%)
  10th question: Mostly dissatisfied, patients (%): (21.32%)
  10th question: Mostly satisfied, patients (%): (26.34%)
  10th question: Partly satisfied, patients (%): (27.10%)
  11th question: Continuously worried, patients (%): (3.44%)
  11th question: No worried, patients (%): (4.81%)
  11th question: Occasionally worried, patients (%): (42.68%)
  11th question: Often worried, patients (%): (14.57%)
  11th question: Seldom worried, patients (%): (34.50%)
  SAQ 4th question, 1-2 times per week: % of patients: (18.08%)
  SAQ 4th question, 1-2 times per week: number of patients: 263
  SAQ 4th question, 1-3 times per day: % of patients: (3.85%)
  SAQ 4th question, 1-3 times per day: number of patients: 56
  SAQ 4th question, <1 time per week: % of patients: (11.34%)
  SAQ 4th question, <1 time per week: number of patients: 165
  SAQ 4th question, Not used: % of patients: (60.14%)
  SAQ 4th question, Not used: number of patients: 875
  SAQ 4th question, ≧3 times per week: % of patients: (6.53%)
  SAQ 4th question, ≧3 times per week: number of patients: 95
  SAQ 4th question, ≧4 times per day: % of patients: (0.07%)
  SAQ 4th question, ≧4 times per day: number of patients: 1
  SAQ 5th question, 1-2 times per week: % of patients: (27.01%)
  SAQ 5th question, 1-2 times per week: number of patients: 393
  SAQ 5th question, 1-3 times per day: % of patients: (11.00%)
  SAQ 5th question, 1-3 times per day: number of patients: 160
  SAQ 5th question, <1 time per week: % of patients: (28.18%)
  SAQ 5th question, <1 time per week: number of patients: 410
  SAQ 5th question, No onset: % of patients: (4.47%)
  SAQ 5th question, No onset: number of patients: 65
  SAQ 5th question, ≧3 times per week: % of patients: (28.93%)
  SAQ 5th question, ≧3 times per week: number of patients: 421
  SAQ 5th question, ≧4 times per day: % of patients: (0.41%)
  SAQ 5th question, ≧4 times per day: number of patients: 6
  SAQ 6th question, Dissatisfied: % of patients: (0.00%)
  SAQ 6th question, Dissatisfied: number of patients: 0
  SAQ 6th question, Highly satisfied: % of patients: (22.27%)
  SAQ 6th question, Highly satisfied: number of patients: 324
  SAQ 6th question, Mostly dissatisfied: % of patients: (1.65%)
  SAQ 6th question, Mostly dissatisfied: number of patients: 24
  SAQ 6th question, Mostly satisfied: % of patients: (55.95%)
  SAQ 6th question, Mostly satisfied: number of patients: 814
  SAQ 6th question, Partly satisfied: % of patients: (20.14%)
  SAQ 6th question, Partly satisfied: number of patients: 293
  SAQ 7th question, Dissatisfied: % of patients: (0.07%)
  SAQ 7th question, Dissatisfied: number of patients: 1
  SAQ 7th question, Highly satisfied: % of patients: (25.67%)
  SAQ 7th question, Highly satisfied: number of patients: 373
  SAQ 7th question, Mostly dissatisfied: % of patients: (1.10%)
  SAQ 7th question, Mostly dissatisfied: number of patients: 16
  SAQ 7th question, Mostly satisfied: % of patients: (58.22%)
  SAQ 7th question, Mostly satisfied: number of patients: 846
  SAQ 7th question, Partly satisfied: % of patients: (14.93%)
  SAQ 7th question, Partly satisfied: number of patients: 217
  SAQ Question 1-1 Mildly limited, number of patients: 22
  SAQ Question 1-1 Mildly limited, percent of patients: (1.52%)
  SAQ Question 1-1 Moderately limited, number of patients: 4
